Experimental data published in the NIST ThermoML archive (doi:10.1021/je700521t).
Numbers after ± are expanded uncertainties.

How the values were obtained:
[1] = refractive index (Na D-line) (dimensionless); details: 101.33 kPa, Liquid
[2] = 101.33 kPa, Liquid; for viscosity: Falling or rolling sphere viscometry

CCCCn1cc[n+](C)c1.[O-][Cl+3]([O-])([O-])[O-] [1-butyl-3-methylimidazolium perchlorate]
refractive index ([1]; 283.15 K): 1.4763 ± 0.0012 | refractive index ([1]; 288.15 K): 1.4751 ± 0.0012 | refractive index ([1]; 293.15 K): 1.474 ± 0.0012 | refractive index ([1]; 298.15 K): 1.4725 ± 0.0012 | refractive index ([1]; 303.15 K): 1.4712 ± 0.0012 | refractive index ([1]; 308.15 K): 1.4696 ± 0.0012 | refractive index ([1]; 313.15 K): 1.4685 ± 0.0012 | refractive index ([1]; 318.15 K): 1.4667 ± 0.0012 | refractive index ([1]; 323.15 K): 1.4655 ± 0.0012 | refractive index ([1]; 328.15 K): 1.4642 ± 0.0012 | refractive index ([1]; 333.15 K): 1.4627 ± 0.0012 | refractive index ([1]; 338.15 K): 1.4615 ± 0.0012 | refractive index ([1]; 343.15 K): 1.4602 ± 0.0012 | refractive index ([1]; 348.15 K): 1.459 ± 0.0012 | refractive index ([1]; 353.15 K): 1.4577 ± 0.0012 | viscosity ([2]; 283.15 K): 466.36 ± 37 mPa·s | mass density ([2]; 283.15 K, Vibrating tube method): 1263.5 ± 8.7 kg/m3 | viscosity ([2]; 288.15 K): 330.8 ± 23 mPa·s | mass density ([2]; 288.15 K, Vibrating tube method): 1259.9 ± 8.6 kg/m3 | viscosity ([2]; 293.15 K): 241.56 ± 14 mPa·s | mass density ([2]; 293.15 K, Vibrating tube method): 1256.2 ± 8.6 kg/m3 | viscosity ([2]; 298.15 K): 180.26 ± 9.5 mPa·s | mass density ([2]; 298.15 K, Vibrating tube method): 1252.7 ± 8.5 kg/m3 | viscosity ([2]; 303.15 K): 137.85 ± 7 mPa·s | mass density ([2]; 303.15 K, Vibrating tube method): 1249.2 ± 8.5 kg/m3 | viscosity ([2]; 308.15 K): 107.28 ± 5.5 mPa·s | mass density ([2]; 308.15 K, Vibrating tube method): 1245.7 ± 8.5 kg/m3 | viscosity ([2]; 313.15 K): 85.75 ± 4.8 mPa·s | mass density ([2]; 313.15 K, Vibrating tube method): 1242.2 ± 8.4 kg/m3 | viscosity ([2]; 318.15 K): 69.52 ± 4.5 mPa·s | mass density ([2]; 318.15 K, Vibrating tube method): 1238.8 ± 8.4 kg/m3 | viscosity ([2]; 323.15 K): 57.22 ± 4.3 mPa·s | mass density ([2]; 323.15 K, Vibrating tube method): 1235.3 ± 8.3 kg/m3 | viscosity ([2]; 328.15 K): 47.78 ± 4.2 mPa·s | mass density ([2]; 328.15 K, Vibrating tube method): 1231.9 ± 8.3 kg/m3 | viscosity ([2]; 333.15 K): 39.9 ± 4.1 mPa·s | mass density ([2]; 333.15 K, Vibrating tube method): 1228.4 ± 8.2 kg/m3 | viscosity ([2]; 338.15 K): 34.14 ± 4.1 mPa·s | mass density ([2]; 338.15 K, Vibrating tube method): 1225 ± 8.2 kg/m3 | viscosity ([2]; 343.15 K): 29.49 ± 4.1 mPa·s | mass density ([2]; 343.15 K, Vibrating tube method): 1221.6 ± 8.1 kg/m3 | viscosity ([2]; 348.15 K): 25.74 ± 4.1 mPa·s | mass density ([2]; 348.15 K, Vibrating tube method): 1218.2 ± 8.1 kg/m3 | viscosity ([2]; 353.15 K): 22.64 ± 4 mPa·s | mass density ([2]; 353.15 K, Vibrating tube method): 1214.8 ± 8 kg/m3

CCCCCCCC[n+]1ccn(C)c1.F[B-](F)(F)F [1-methyl-3-octylimidazolium tetrafluoroborate]
refractive index ([1]; 283.15 K): 1.4363 ± 0.0008 | refractive index ([1]; 288.15 K): 1.435 ± 0.0008 | refractive index ([1]; 293.15 K): 1.4336 ± 0.0008 | refractive index ([1]; 298.15 K): 1.4322 ± 0.0008 | refractive index ([1]; 303.15 K): 1.431 ± 0.0008 | refractive index ([1]; 308.15 K): 1.4288 ± 0.0008 | refractive index ([1]; 313.15 K): 1.4271 ± 0.0008 | refractive index ([1]; 318.15 K): 1.426 ± 0.0008 | refractive index ([1]; 323.15 K): 1.425 ± 0.0008 | refractive index ([1]; 328.15 K): 1.4235 ± 0.0008 | refractive index ([1]; 333.15 K): 1.4222 ± 0.0008 | refractive index ([1]; 338.15 K): 1.421 ± 0.0008 | refractive index ([1]; 343.15 K): 1.4195 ± 0.0008 | refractive index ([1]; 348.15 K): 1.418 ± 0.0008 | refractive index ([1]; 353.15 K): 1.4167 ± 0.0008 | refractive index ([1]; 358.15 K): 1.4155 ± 0.0008 | refractive index ([1]; 363.15 K): 1.4142 ± 0.0008 | mass density ([2]; 283.15 K): 1124.9 ± 1.7 kg/m3 | viscosity ([2]; 283.15 K): 1037 ± 110 mPa·s | mass density ([2]; 288.15 K): 1121.4 ± 1.7 kg/m3 | viscosity ([2]; 288.15 K): 718.75 ± 66 mPa·s | mass density ([2]; 293.15 K): 1117.9 ± 1.6 kg/m3 | viscosity ([2]; 293.15 K): 462.9 ± 36 mPa·s | mass density ([2]; 298.15 K): 1114.4 ± 1.6 kg/m3 | viscosity ([2]; 298.15 K): 334.17 ± 22 mPa·s | mass density ([2]; 303.15 K): 1110.9 ± 1.6 kg/m3 | viscosity ([2]; 303.15 K): 246.18 ± 14 mPa·s | mass density ([2]; 308.15 K): 1107.5 ± 1.6 kg/m3 | viscosity ([2]; 308.15 K): 191.95 ± 9.3 mPa·s | mass density ([2]; 313.15 K): 1104.1 ± 1.6 kg/m3 | viscosity ([2]; 313.15 K): 147.92 ± 6.7 mPa·s | mass density ([2]; 318.15 K): 1100.7 ± 1.5 kg/m3 | viscosity ([2]; 318.15 K): 116.38 ± 5.3 mPa·s | mass density ([2]; 323.15 K): 1097.3 ± 1.5 kg/m3 | viscosity ([2]; 323.15 K): 91.95 ± 4.5 mPa·s | mass density ([2]; 328.15 K): 1093.9 ± 1.5 kg/m3 | viscosity ([2]; 328.15 K): 74.79 ± 4.2 mPa·s | mass density ([2]; 333.15 K): 1090.6 ± 1.5 kg/m3 | viscosity ([2]; 333.15 K): 60.95 ± 4.1 mPa·s | mass density ([2]; 338.15 K): 1087.2 ± 1.5 kg/m3 | viscosity ([2]; 338.15 K): 50.88 ± 4 mPa·s | mass density ([2]; 343.15 K): 1083.9 ± 1.5 kg/m3 | viscosity ([2]; 343.15 K): 42.06 ± 4 mPa·s | mass density ([2]; 348.15 K): 1080.5 ± 1.5 kg/m3 | viscosity ([2]; 348.15 K): 35.78 ± 4 mPa·s | mass density ([2]; 353.15 K): 1077.2 ± 1.4 kg/m3 | viscosity ([2]; 353.15 K): 30.11 ± 4 mPa·s | mass density ([2]; 358.15 K): 1073.8 ± 1.4 kg/m3 | viscosity ([2]; 358.15 K): 25.87 ± 4 mPa·s | mass density ([2]; 363.15 K): 1070.5 ± 1.4 kg/m3 | viscosity ([2]; 363.15 K): 21.57 ± 4 mPa·s
